Measurements reported in patent US20230340137A1, “METHODS, THERAPIES AND USES FOR TREATING CANCER” (PFIZER INC., priority 2020, published 2023).

Key:
[1] = test system: adult patients with advanced multiple myeloma; assay: Phase 1 clinical study NCT03269136, patient response per IMWG criteria; format: in vivo, human
From the text: This Example illustrates an ongoing Phase 1 open-label, multicenter clinical study of PF-06863135 (BCMA×CD3 bispecific) as monotherapy and in combination with sasanlimab, lenalidomide or pomalidomide, in adult patients with advanced multiple myeloma who have relapsed from or are refractory to standard therapy. The study has been registered on ClinicalTrials.gov with identifier NCT03269136 and was first posted August 2017. Study results for Part 1 of the trial and additional arms for the study are described in this Example.
Part 1 of the Study is the […] single agent dose escalation arm at the dose levels of 0.1, 0.3, 1, 3, 10, 30, and 50 μg/kg Q1W by intravenous (IV) administration, and at the dose levels of 80, 130, 215, 360, 600 and 1000 μg/kg Q1W by subcutaneous (SC) administration. Upon reaching maximum tolerated dose (MTD)/maximum administered dose (MAD), patients can be treated at a dose level selected from the foregoing dose levels described in this paragraph, and below the MTD/MAD fora Q2W administration, both IV and SC, to further support the recommended phase 2 dose (RP2D) decision. For the study, dose limiting toxicity observation period is set at 21 days for Q1W dosing and 28 days for Q2W dosing. The treatment cycle, aka cycle, for Q1W dosing would be 3 weeks, and for Q2W dosing would be four weeks.
Clinical Outcome of Part 1 of the Study. As of 15 Apr. 2020, a total of 23 patients were enrolled in Part 1 of the study and had been treated with PF-06863135 administered intravenously (IV) at 0.1 (N=2), 0.3 (N=3), 1 (N=2), 3 (N=3), 10 (N=2), 30 (N=5), and 50 (N=6) μg/kg. As of Aug. 21, 2020, a total of 30 patients were enrolled in Part 1 of the study and had been treated with PF-06863135 administered subcutaneously (SC) at 80 (N=6), 130 (N=4), 215 (N=4), 360 (N=4), 600 (N=6) and 1000 (N=6) μg/kg. Safety and efficacy data were available for in 23 IV and 30 SC treated patients per IMWG (International Myeloma Working Group) criteria.
Part 1.1 of the Study is an alternative maintenance dose escalation arm for single agent PF-06863135. If excessive toxicity occurs or the maximum tolerated dose (MTD)/maximum administered dose (MAD) is reached at a dose level that is earlier than desired in Part 1 of the study described above, a priming dose will be administered one week prior to the day 1 cycle 1 administration of the dose (maintenance dose) at this dose level and for all subsequent dose levels in the dose escalation that may be initiated for Part 1.1. The priming dosing will be at a lower dose level than the maintenance dose.
Clinical outcome of Part 1.1 of the Study. As of Feb. 4, 2021, a total of 20 patients were enrolled and treatment in Part 1.1 of the Study, with cohort of 7 patients at a 600 μg/kg priming dose followed by 1000 μg/kg Q1W dosing, and a cohort of 13 patients at a 600 μg/kg priming dose followed by 1000 μg/kg Q2W dosing. The CRS in these two cohorts is described in Table 13. Introducing of priming dose decreased medium duration of CRS by 50%, from 4 days to 2 days. The dose frequency in part 1.1 of the study (Q1W v. Q2W) had no impact on the CRS. Patient response of Part 1.1 of the Study is described in Table 14.

[2] = test system: MM.1S-Luc-PD-L1 multiple myeloma cells; assay: Orthotopic MM.1S-Luc-PD-L1 multiple myeloma mouse model, luminescent imaging; format: in vivo, NSG mice; details: BCMAxCD3 10 μg/kg single IV dose day 21, anti-PD-1 5 mg/kg IP twice a week
Description: MM.1 S-Luc multiple myeloma cells were engineered to express PD-L1 and are referred to as MM.1S-Luc-PD-L1. MM.1S-Luc-PD-L1 cells were prepared as a single cell suspension of 5×10^6 cells for intravenous (IV) inoculation into NSG mice.
Tumor growth was monitored by luminescent imaging by intraperitoneal (IP) injection of luciferin solution in DPBS and imaged using Perkin Elmer IVIS Spectrum camera system. Animals were administered 2×10^7 expanded human T cells IV 19 days after tumor cell inoculation. Two days following T cell administration, a single dose of the BCMAxCD3 bispecific (10 μg/kg) was administered as a bolus IV injection. Anti-PD-1 antibody was administered twice a week as a bolus IP injection at 5 mg/kg for a total of 6 injections.
Tumor growth was monitored via imaging measurements collected twice weekly. Mice were imaged using the Perkin Elmer IVIS Spectrum camera system with automatic parameter determination and a maximum imaging time of 3 minutes. Living Image software was used to collect the data. Regions of Interest (ROIs) were drawn around the entire body of the mouse, excluding as much as possible of the tail. Background flux, as measured on the anesthesia manifold, is subtracted from each ROI. Tumor measurements are expressed as total flux expressed in photons/sec (p/s). Study was terminated at day 40 post tumor inoculation.

[3] = 600 μg/kg priming, 1000 μg/kg Q1W SC, N = 7
[4] = 600 μg/kg priming, 1000 μg/kg Q2W SC, N = 13

For “PF-06863135: heterodimeric humanized full-length bispecific antibody, one BCMA binding arm and one CD3 binding arm, modified human IgG2Δa Fc”, the “patients achieving a complete response” value ([1]; 50 μg/kg IV) was 1 patient, the “OR (percent)” value ([1]; 215 μg/kg SC, N = 4) was “(75%)” and the “OR (responders/patients)” value ([1]; 215 μg/kg SC, N = 4) was 3/4. The “PR (number of patients)” value ([1]; 215 μg/kg SC, N = 4) was 1, the “sCR (number of patients)” value ([1]; 215 μg/kg SC, N = 4) was 2 and the “OR (percent)” value ([1]; 360 μg/kg SC, N = 4) was “(75%)”. For the same substance, the “OR (responders/patients)” value ([1]; 360 μg/kg SC, N = 4) was 3/4, the “PD (number of patients)” value ([1]; 360 μg/kg SC, N = 4) was 1 and the “VGPR (number of patients)” value ([1]; 360 μg/kg SC, N = 4) was 2. The “sCR (number of patients)” value ([1]; 360 μg/kg SC, N = 4) was 1, the “OR (percent)” value ([1]; 600 μg/kg SC, N = 6) was “(67%)” and the “OR (responders/patients)” value ([1]; 600 μg/kg SC, N = 6) was 4/6. The “PD (number of patients)” value ([1]; 600 μg/kg SC, N = 6) was 1, the “VGPR (number of patients)” value ([1]; 600 μg/kg SC, N = 6) was 2 and the “sCR (number of patients)” value ([1]; 600 μg/kg SC, N = 6) was 2. The “CR (number of patients)” value [1, 3] was 2, the “OR (percent)” value [1, 3] was “(57%)” and the “OR (responders/patients)” value [1, 3] was 4/7. The “PR (number of patients)” value [1, 3] was 1, the “VGPR (number of patients)” value [1, 3] was 1 and the “OR (percent)” value [1, 4] was “(54%)”. The “OR (responders/patients)” value [1, 4] was 7/13, the “PD (number of patients)” value [1, 4] was 3 and the “PR (number of patients)” value [1, 4] was 3. For the same substance, the “VGPR (number of patients)” value [1, 4] was 4, the “CR (number of patients)” value ([1]; 1000 μg/kg SC, N = 6) was 1 and the “OR (percent)” value ([1]; 1000 μg/kg SC, N = 6) was “(83%)”. The “OR (responders/patients)” value ([1]; 1000 μg/kg SC, N = 6) was 5/6, the “PD (number of patients)” value ([1]; 1000 μg/kg SC, N = 6) was 1 and the “PR (number of patients)” value ([1]; 1000 μg/kg SC, N = 6) was 1. For the same substance, the “VGPR (number of patients)” value ([1]; 1000 μg/kg SC, N = 6) was 3, the clinical efficacy ([1]; 600 and 1000 μg/kg SC) was “seen in most patients” and the “subjects with best response of stable disease” value ([1]; IV cohorts (0.3-50 μg/kg)) was “Ten”. The “patients achieving a minimal response” value ([1]; IV cohorts, at 3 μg/kg and 50 μg/kg IV) was 2 patients, the “Tumor measurements expressed as total flux” value (shortened to “Tumor measurements expressed”) ([2]; day 15 post tumor cell inoculation (before dosing)) was 1.513 × 10^7 p/s and the “Tumor measurements expressed” value ([2]; day 18 post tumor cell inoculation (before dosing)) was 8.343 × 10^7 p/s. For the same substance, the “Tumor measurements expressed” value ([2]; day 20 post tumor cell inoculation (before dosing)) was 1.788 × 10^8 p/s, the “Tumor measurements expressed” value ([2]; day 25 post tumor cell inoculation) was 2.2729 × 10^7 p/s and the “Tumor measurements expressed” value ([2]; day 28 post tumor cell inoculation) was 7.082 × 10^7 p/s. For the same substance, the “Tumor measurements expressed” value ([2]; day 32 post tumor cell inoculation) was 7.076 × 10^7 p/s, the “Tumor measurements expressed” value ([2]; day 35 post tumor cell inoculation) was 8.712 × 10^8 p/s and the “Tumor measurements expressed” value ([2]; day 39 post tumor cell inoculation) was 6.776 × 10^8 p/s.
